In patent US20090074761A1, “Therapeutic beta-glucan combinations” (priority 2007, published 2009):

Key:
[1] = test system: MDA-MB-483, HBL-100, Colo38 cells; experiment: complement activation (iC3b deposition), flow cytometry, cell lines negative for membrane-bound VEGF; type: cell-based, human; conditions: tumor cell lines negative for membrane-bound VEGF, mouse serum as complement source
Procedure: Next, the ability of anti-VEGF mAb to bind surface-bound VEGF and activate complement, which leads to iC3b deposition, was examined. SKOV-3 cells were mixed with anti-VEGF mAb in the presence of a 1:4 dilution of mouse serum (complement source). For every one million tumor cells, a 100 μL volume of diluted mouse serum containing 10 μg/mL working dilution of anti-VEGF mAb was used. Tumor cells were mixed and incubated at 37° C. for 30 min. The cells were washed in ice cold flow cytometry staining buffer and the cell pellet was resuspended in […] diluted detecting antibody. The cells were incubated on ice for 30 min. and washed twice. Propidium iodide was used to exclude dead cells. The results of cell lines MDA-MB-483, HBL-100, SKOV-3 and Colo38 are shown in histograms 26, 28, 30 and 32 of FIG. 1C, respectively. Cells incubated with anti-VEGF mAb in the presence of complement and stained with anti-mouse iC3b-FITC mAb are represented by bold lines. Controls included cells incubated with mouse complement (dotted line) or without mouse complement (filled gray) and then stained with anti-mouse iC3b-FITC mAb.

SKOV-3 cells = type: cell-based, human
Procedure: As described above, β-glucan functions with anti-tumor antibodies to activate complement receptor 3 (CR3) and recruit neutrophils that mediate CR3 (iC3b-receptor)-dependent cytotoxicity of tumors coated with iC3b. […] SKOV-3 cells were incubated with anti-VEGF mAb or anti-Her-2/neu mAb in the presence of human complement. Cells were then washed and co-cultured with human neutrophils (E:T ratio=20:1) in the presence of soluble β-glucan. Cytotoxicity was calculated as in Li et al., J Immunol 177:1661-1669.

SKOV-3 tumors [2] = experiment: SKOV-3 xenograft in ICR SCID mice, i.v. therapy for 4 weeks (FIG. 3); type: in vivo, mouse; conditions: 1.2 mg β-glucan twice weekly, 0.2 mg bevacizumab every third day, i.v. 4 weeks; start 300 mm^3
From the text: After SKOV-3 cell s.c. implantation, tumors were allowed to grow for over 17 days until they were 300 mm^3. […] Mice were sacrificed when the tumors reached 15 mm in diameter.

SKOV-3 tumors [3] = experiment: SKOV-3 xenograft model in ICR SCID mice (FIG. 4A, 4B); type: in vivo, mouse
From the text: (§1) Additional evidence was gathered to show efficacy of in vivo therapy. ICR SCID mice implanted with SKOV-3 cells were compared to ICR SCID mice implanted with Colo38 cells as a control. […] Most of these tumors still retained their sizes before therapy. More importantly, 86% of these mice achieved long-term survival compared with 43% of tumor-bearing mice treated with anti-VEGF mAb only (FIG. 4B).

Colo38 tumors = experiment: Colo38 xenograft model in ICR SCID mice (FIG. 4C); type: in vivo, mouse; conditions: Colo38 xenograft (membrane-bound VEGF negative)
From the text: as §1

SKOV-3 tumors [4] = experiment: immunohistochemistry of tumor sections: iC3b deposition and neutrophil infiltration (FIG. 5); type: in vivo, mouse; conditions: for neutrophil infiltration in tumors: anti-Gr-1-PE staining of tumor sections; for iC3b deposition in tumors: anti-iC3b-FITC staining of tumor sections
From the text: Interaction between the complement activation product iC3b and the I-domain of CR3 provides the first signal for CR3 priming. Engagement of β-glucan with the lectin-like domain of CR3 is additionally required for the full activation of CR3. The dual ligation of CR3 leads to neutrophil CR3-dependent cellular cytotoxicity (Li et al., J Immunol 177:1661-1669). Neutrophil trafficking within tumors is also critical for successful combined β-glucan with anti-tumor mAb therapy (Allendorf et al., J Immunol 174:7050-7056). Therefore, immunohistochemistry studies were carried out to examine complement activation and neutrophil infiltration within tumors after treatment with different regimens.
First, the tumor sections from four groups were stained with an anti-iC3b-FITC and anti-VEGF-PE mAbs. […] Second, the tumor sections were stained with anti-Gr-1-PE mAb to detect neutrophil infiltration.

SKOV-3 tumors [5] = experiment: tumor blood vessel development, anti-CD31 staining of tumor sections (FIG. 6); type: in vivo, mouse; conditions: anti-CD31-biotin staining, compared to PBS or β-glucan alone
From the text: To observe tumor blood vessel development after anti-VEGF mAb therapy, the tumor sections were stained with anti-CD31-biotin mAb.

Substance | complement activation (iC3b deposition) [1] | cytotoxicity (SKOV-3 cells) [%] | tumor size reached (SKOV-3 tumors [2]) [mm^3] | mice achieving long-term survival (SKOV-3 tumors [3]) [%] | tumor burden (SKOV-3 tumors [3]) | tumor burden (Colo38 tumors) | neutrophil infiltration in tumors (SKOV-3 tumors [4]) | iC3b deposition in tumors (SKOV-3 tumors [4]) | tumor microvessel density (SKOV-3 tumors [5])
bevacizumab | negative for complement activation | 0.2 | 800±250 | 43 | significantly reduced tumor burden | significantly reduced tumor burden | significant neutrophil infiltration | massive iC3b deposition | decreased tumor microvessel density
poly-(1-6)-β-D-glucopyranosyl-(1-3)-β-D-glucopyranose [β-glucan] |  |  | 1500±500 |  | did not show any significant tumor regression |  | paucity of iC3b deposition and neutrophil infiltration | no iC3b deposition | 
